Patent US20080103127A1, “METHODS FOR TREATING DISRUPTIVE BEHAVIOR DISORDERS” (priority 2006, published 2008)

Tests used:
submissive rats [1] = conditions: cited from earlier work; for submissive behavior: treatment of the submissive subject for 3 weeks
dominant rats = conditions: administered to dominant rats; cited from earlier work
submissive rats [2] = assay: Reduction of Submissive Behavior Model (RSBM) of depression, dominant-submissive rat food competition test; format: in vivo, Sprague-Dawley rats
Source text: In this study, the effects of COMPOUND #7 on dominant or submissive behavior in pairs of rats competing for food are examined. It has been shown that anti-manic drugs, including anticonvulsants, decrease dominance and antidepressant drugs reduce submissiveness. This model uses dominant behavior as a model of mania and submissive behavior as a model of depression. The dominance and submissiveness is defined in a competition test and measured as the relative success of two food-restricted rats to gain access to a feeder. Rats are randomly paired and placed in an apparatus allowing them to compete for a food reward. The dominant-submissive relationship develops over a 2-week period. The submissive or dominant animals in pairs selected after 2 weeks of training were treated orally […] (b.i.d.) with COMPOUND #7 at 3 or 30 mg/kg for 5 weeks. The partner of the drug-treated animal was treated with vehicle.
The objective of this study was to determine if COMPOUND #7 is active in the Reduction of Submissive Behavior Model (RSBM) of depression and the Reduction of Dominant Behavior Model (RDBM) of mania. Measurements were made at two doses (3 and 30 mg/kg) after oral twice a day (b.i.d.) administration. The effect of the drug in the RSBM was compared to the effect of fluoxetine (10 mg/kg) and vehicle (0.5% methylcellulose). The effect of the drug in the RDBM was compared with the effect of lithium (100 mg/kg) and vehicle (0.5% methylcellulose). The endpoints measured were the development of a significant reduction of submissive or dominant behavior and its time of onset.
The DSR developed by two rats competing for food uses the apparatus in FIG. 1. The methodology and equipment are described in several publications. (See, Malatynska E, Goldenberg R, Shuck L, Haque A, Zamecki P, Crites G, Schindler N, Knapp R J. Reduction of submissive behavior in rats: a test for antidepressant drug activity. Pharmacology 2002; 64:8; Malatynska E, Rapp R, Crites G. Dominant behavior measured in a competition test as a model of mania. In: International Behavioral Neuroscience Society Meeting, ed. IBNSCapri, Italy, 2002, p 26.; Bonnet U. Moclobemide: therapeutic use and clinical studies. CNS Drug Rev 2003; 9:97; Danysz W, Plaznik A, Kostowski W, Malatynska E, Jarbe T U, Hiltunen A J, Archer T. Comparison of desipramine, amitriptyline, zimeldine and alaproclate in six animal models used to investigate antidepressant drugs. Pharmacol Toxicol 1988; 62:42; Knapp R J, Goldenberg R, Shuck C, Cecil A, Watkins J, Miller C, Crites G, Malatynska E. Antidepressant activity of memory-enhancing drugs in the reduction of submissive behavior model. Eur J Pharmacol 2002; 440:27; Kostowski W, Malatynska E, Plaznik A, Dyr W, Danysz W. Comparative studies on antidepressant action of alprazolam in different animal models. Pol J Pharmacol Pharm 1986; 38, 471; Malatynska E, De Leon I, Allen D, Yamamura Hi. Effects of amitriptyline on GABA-stimulated ^36Cl^− uptake in relation to a behavioral model of depression. Brain Res Bull 1995; 37:53; Malatynska E, Kostowski W. The effect of antidepressant drugs on dominance behavior in rats competing for food. Pol J Pharmacol Pharm 1984; 36:531; Malatynska E, Kostowski W. Desipramine antagonizes clonidine-induced suppression of dominance in rats: possible involvement of amygdaloid nuclei. Pol J Pharmacol Pharm 1988; 40:357).
In the experiments described in this report Sprague-Dawley rats weighing 160 to 180 g were used. Testing for the development of a DSR between paired rats begins with the random assignment of rats into pairs. Rats from pairs are housed separately between test sessions with other animals in groups of four. The animals are food-deprived overnight with free access to water.
The test involves placing each member of a pair in opposite chambers of the testing apparatus. These chambers are connected through a narrow tunnel with a small container of sweetened milk at the center. […]

Row | SMILES | submissive behavior (submissive rats [1]) | competitive behavior of dominant rats (dominant rats) | also measured
1 | CNCCCN1c2ccccc2CCc2ccccc21 [desipramine] | reduced submissive behavior |  | effect on submissive behavior after cessation of treatment (submissive rats [1]; after cessation of treatment): attenuated
2 | CCCC(CCC)C(=O)[O-].[Na+] [sodium valproate] |  | significantly reduced competitive behavior | 
3 | CN1C(=O)CN=C(c2ccccc2)c2cc(Cl)ccc21 [diazepam] |  |  | effect of treatment of submissive rats (anxiolytic) (submissive rats [1]; Pharmacology 2002, 64:8): ineffective
4 | CNCCC(Oc1ccc(C(F)(F)F)cc1)c1ccccc1 (stereo not shown) [fluoxetine, reference compound] | reduced submissive behavior |  | onset of significant effect on submissive rats (time of treatment) (submissive rats [2]; 10 mg/kg i.p. once a day, previous experimental set): 3 weeks
5 | CN(C)CCCN1c2ccccc2CCc2ccccc21 [imipramine] | reduced submissive behavior |  | 
6 | Clc1cccc(Cl)c1N=C1NCCN1 [clonidine] |  | significantly reduced competitive behavior | 
7 | NC(=O)N1c2ccccc2C=Cc2ccccc21 [carbamazepine] |  | significantly reduced competitive behavior | 
8 | CC(N)Cc1ccccc1 (stereo not shown) [amphetamine, reference compound] |  |  | effect of treatment of submissive rats (psychostimulant) (submissive rats [2]; unpublished observation): ineffective
